29 molecules from ChEMBL document CHEMBL5113538, “Discovery of Novel Allosteric EGFR L858R Inhibitors for the Treatment of Non-Small-Cell Lung Cancer as a Single Agent or in Combination with Osimertinib” (J Med Chem, 2022) can be followed below.

As a reminder, the IC50 is the concentration at which inhibition is half-maximal. A word on the IC90: it is the concentration at which the effect reaches the 90% level.

Series [1] concerns the target Epidermal growth factor receptor (Homo sapiens, UniProt P00533, C797S/L858R/T790M).
Series [2] has as its target Epidermal growth factor receptor (Homo sapiens, UniProt P00533, C797S/L858R).
Series [3] deals with BaF3. Description: Cytotoxicity against mouse BaF3 cells harboring EGFR L858R/C797S mutant assessed as reduction in cell viability measured after 72 hrs by cell titre glo luminescence assay. It counts as functional, cell-based. Conditions: for IC50: BaF3, 72 h; for IC90: BaF3, time 72 hrs.
For series [4], the system named is BaF3. Put plainly: Cytotoxicity against mouse BaF3 cells expressing EGFR L858R/T790M/C797S mutant assessed as reduction in cell viability measured after 72 hrs by cell titre glo luminescence assay. It counts as functional, cell-based. The following applies: for IC50: BaF3, 72 h; for IC90: BaF3, time 72 hrs.
Series [5] relates to BaF3. Description: Antitumor activity against mouse BaF3 cells harboring EGFR L858R/C797S mutant allografted in Balb/c nude mouse assessed as in tumor growth inhibition at 30 mg/kg administered twice daily measured on day 20. It is filed as functional. The following applies: BaF3, 480 h, time 20 day, read-out: TGI.
Series [6] can be described thus: Intrinsic clearance in human liver hepatocytes measured per 10^6 cells incubated upto 2 hrs by LC-MS/MS analysis. It is filed as ADME, cell-based, Hepatocyte. Conditions: read-out: CLH.
Series [7] can be described thus: Intrinsic clearance in mouse liver hepatocytes measured per 10^6 cells incubated upto 2 hrs by LC-MS/MS analysis. Conditions: read-out: CLH. It counts as ADME, cell-based, Hepatocyte.

Chain of Epidermal growth factor receptor (Homo sapiens, UniProt P00533, C797S/L858R/T790M) (P00533 25-1210 T790M/C797S/L858R limits assumed): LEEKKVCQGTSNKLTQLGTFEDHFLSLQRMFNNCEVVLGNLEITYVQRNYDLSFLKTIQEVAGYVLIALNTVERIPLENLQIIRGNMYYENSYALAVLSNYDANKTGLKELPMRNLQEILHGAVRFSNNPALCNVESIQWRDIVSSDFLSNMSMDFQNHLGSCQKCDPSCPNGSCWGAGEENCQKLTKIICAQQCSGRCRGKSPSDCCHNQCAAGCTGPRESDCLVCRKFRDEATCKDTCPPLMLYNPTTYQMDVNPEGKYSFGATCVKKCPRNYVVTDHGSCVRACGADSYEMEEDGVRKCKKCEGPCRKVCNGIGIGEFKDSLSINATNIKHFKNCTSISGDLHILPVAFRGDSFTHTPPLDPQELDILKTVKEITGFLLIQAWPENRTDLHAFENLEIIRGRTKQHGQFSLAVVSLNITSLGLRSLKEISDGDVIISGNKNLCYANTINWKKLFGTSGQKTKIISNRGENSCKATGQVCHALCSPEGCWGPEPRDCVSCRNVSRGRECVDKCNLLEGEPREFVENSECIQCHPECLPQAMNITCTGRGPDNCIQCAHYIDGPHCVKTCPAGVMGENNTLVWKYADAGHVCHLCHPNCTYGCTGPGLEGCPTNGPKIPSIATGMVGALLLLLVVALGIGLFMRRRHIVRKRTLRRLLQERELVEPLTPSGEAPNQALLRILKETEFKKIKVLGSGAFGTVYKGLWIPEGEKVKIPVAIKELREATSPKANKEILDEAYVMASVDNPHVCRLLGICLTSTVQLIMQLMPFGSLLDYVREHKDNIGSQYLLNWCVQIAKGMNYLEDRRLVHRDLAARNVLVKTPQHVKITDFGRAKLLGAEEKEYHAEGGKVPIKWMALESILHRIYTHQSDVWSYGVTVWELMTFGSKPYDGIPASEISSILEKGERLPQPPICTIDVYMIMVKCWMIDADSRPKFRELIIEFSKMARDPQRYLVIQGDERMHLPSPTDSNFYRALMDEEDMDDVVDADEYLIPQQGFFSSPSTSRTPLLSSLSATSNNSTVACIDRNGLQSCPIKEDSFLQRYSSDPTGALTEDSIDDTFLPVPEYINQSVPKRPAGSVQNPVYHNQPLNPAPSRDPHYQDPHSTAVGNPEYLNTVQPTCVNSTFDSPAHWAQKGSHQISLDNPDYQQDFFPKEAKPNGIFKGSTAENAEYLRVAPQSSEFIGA
Chain of Epidermal growth factor receptor (Homo sapiens, UniProt P00533, C797S/L858R) (P00533 25-1210 C797S/L858R limits assumed): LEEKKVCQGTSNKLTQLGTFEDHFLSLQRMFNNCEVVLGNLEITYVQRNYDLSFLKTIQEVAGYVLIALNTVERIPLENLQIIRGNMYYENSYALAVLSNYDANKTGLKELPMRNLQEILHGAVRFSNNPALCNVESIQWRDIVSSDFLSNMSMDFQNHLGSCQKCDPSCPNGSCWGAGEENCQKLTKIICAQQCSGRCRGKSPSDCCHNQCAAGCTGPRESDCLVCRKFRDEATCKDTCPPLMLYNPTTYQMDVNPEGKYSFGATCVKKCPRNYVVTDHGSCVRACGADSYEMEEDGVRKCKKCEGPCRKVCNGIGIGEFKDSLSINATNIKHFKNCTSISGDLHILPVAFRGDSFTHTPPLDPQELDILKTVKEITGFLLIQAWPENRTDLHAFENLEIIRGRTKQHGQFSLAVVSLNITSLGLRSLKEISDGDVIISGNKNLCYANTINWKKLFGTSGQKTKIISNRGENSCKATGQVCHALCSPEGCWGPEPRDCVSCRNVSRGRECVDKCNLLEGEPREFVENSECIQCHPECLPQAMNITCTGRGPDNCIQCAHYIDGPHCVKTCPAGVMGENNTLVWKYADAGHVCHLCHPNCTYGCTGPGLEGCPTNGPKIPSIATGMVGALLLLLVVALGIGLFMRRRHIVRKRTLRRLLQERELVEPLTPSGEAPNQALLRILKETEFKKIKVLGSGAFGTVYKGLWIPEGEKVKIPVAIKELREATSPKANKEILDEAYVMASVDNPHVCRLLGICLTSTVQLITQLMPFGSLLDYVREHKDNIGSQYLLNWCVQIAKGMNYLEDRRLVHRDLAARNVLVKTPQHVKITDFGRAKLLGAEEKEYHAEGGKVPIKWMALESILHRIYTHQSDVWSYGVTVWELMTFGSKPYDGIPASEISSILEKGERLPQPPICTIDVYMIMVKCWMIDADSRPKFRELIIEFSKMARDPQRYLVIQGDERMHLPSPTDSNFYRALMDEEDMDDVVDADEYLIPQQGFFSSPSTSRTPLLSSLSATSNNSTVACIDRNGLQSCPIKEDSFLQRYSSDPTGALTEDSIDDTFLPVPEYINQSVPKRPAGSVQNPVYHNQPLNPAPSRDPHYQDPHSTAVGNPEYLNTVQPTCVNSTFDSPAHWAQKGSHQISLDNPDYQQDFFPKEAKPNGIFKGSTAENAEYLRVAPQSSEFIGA

With `O=C(Nc1nccs1)C(c1ncn2c1CCC2)N1Cc2c(F)cc(C#Cc3ccc(CN4CCCCC4)cc3)cc2C1=O` (configuration not stated), the IC50 in series [1] came to 7 nM; in series [2], 54 nM; in the series with BaF3 [3] it was 207 nM; in the series on BaF3 [4], 10 nM. Besides, the values for the IC90 in the series on BaF3 [3] and with BaF3 [4] were 711 nM and 24 nM, respectively.
Take `Cc1c(-c2ccc(N3CCOCC3)cc2)cc(C(F)F)c2cn(C(C(=O)Nc3nccs3)c3ncn4c3CCC43CC3)nc12` (configuration not stated): the figures for the IC50 (in series [1]; in the series on BaF3 [3]) were 10 nM and 3 nM, respectively. Besides, the inhibition in vivo at 30 mg/kg with BaF3 [5] came to 26%.
In the case of `O=C(Nc1nccs1)C(c1ncn2c1CCC2)N1Cc2c(F)cc(C#Cc3ccc(CN4CCC(CO)CC4)cc3)cc2C1=O` (configuration not stated), the values for the concentration for half-maximal inhibition (IC50) (in series [2]; in the series with BaF3 [3]; with BaF3 [4]) were 12 nM, 16 nM and 1 nM, respectively. In addition, the IC90 stood at 47 nM in the series on BaF3 [3] and 2 nM in the series on BaF3 [4].
As to `O=C(Nc1nccs1)C(c1cc[nH]n1)N1Cc2ccccc2C1=O` (configuration not stated), the IC50 was 938 nM in series [1] and above 10000 nM in series [2].
The corresponding values for `O=C(Nc1nccs1)C(c1n[nH]c2c1CCC2)N1Cc2ccccc2C1=O` (configuration not stated) are 23 nM and 3200 nM.
Turning to `O=C(Nc1nccs1)C(c1ncn2c1CCC2)N1Cc2ccc(C#Cc3ccc(CN4CCC(O)CC4)cc3)cc2C1=O` (configuration not stated), the concentration for half-maximal inhibition (IC50) in series [1] was 7 nM; in series [2] it was 297 nM; in the series with BaF3 [3], 1250 nM; in the series with BaF3 [4] it was 10 nM. In addition, the IC90 is 3250 nM in the series on BaF3 [3] and 24 nM in the series on BaF3 [4].
For the molecule `Cc1c(-c2ccc(N3CCOCC3)cc2)cc(C(F)F)c2cn(C(C(=O)Nc3nccs3)c3ncn4c3C[C@@H](F)C4)nc12` (mixture of isomers), the IC50 in series [1] was 7 nM; in the series on BaF3 [3], 4 nM.
Take `O=C(Nc1nccs1)C(c1ncn2c1CCC2)N1Cc2c(Cl)cccc2C1=O` (configuration not stated): the hepatocyte CLint is 7 µL/min/1e6 cells in series [6] and 68 µL/min/1e6 cells in series [7]. The IC50 in series [1] stood at 4 nM; in series [2] it was 183 nM.
For the molecule `O=C(Nc1nccs1)C(c1ncn2c1CCC2)N1Cc2c(F)cc(C#Cc3cccnc3)cc2C1=O` (configuration not stated), the IC50 came out at 7 nM in series [1], 129 nM in series [2], 1800 nM in the series on BaF3 [3] and 12 nM with BaF3 [4]. The results for the IC90 in the series with BaF3 [3] and in the series with BaF3 [4] were 7000 nM and 30 nM, respectively.
On to `O=C(Nc1nccs1)C(c1ncn2c1CCC2)N1Cc2ccc(C#Cc3cccnc3)cc2C1=O` (configuration not stated), for which the IC50 in series [1] was 460 nM; in series [2] it was above 10000 nM; with BaF3 [3] it was above 10000 nM; in the series with BaF3 [4], 1200 nM. Also, the figures for the 90% effect concentration (IC90) in the series on BaF3 [3] and in the series with BaF3 [4] were above 10000 nM and 3000 nM, respectively.
`O=C(Nc1nccs1)C(c1cc(F)ccc1O)N1Cc2ccc(-c3ccc(N4CCNCC4)cc3)cc2C1=O` (configuration not stated): in the series on BaF3 [3], the concentration for half-maximal inhibition (IC50) came out at 1550 nM and the IC90 turned out to be 7280 nM. For the same molecule, in the series with BaF3 [4], the IC50 turned out to be 30 nM and the concentration for an effect of 90% (IC90) amounted to 40 nM.
With `Cc1[nH]nc(C(C(=O)Nc2nccs2)N2Cc3ccccc3C2=O)c1C` (configuration not stated), the IC50 in series [1] and in series [2] was above 10000 nM throughout.
For the molecule `O=C(Nc1nccs1)C(c1ncn2c1CCC2)N1Cc2c(F)cc(C#Cc3ccc(CN4CCC(O)CC4)cc3)cc2C1=O` (configuration not stated), the hepatocyte CLint came out at 1.6 µL/min/1e6 cells in series [6] and 3.6 µL/min/1e6 cells in series [7]. Further, the IC50 in series [1] amounted to 5 nM; in series [2], 33 nM; in the series on BaF3 [3], 72 nM; in the series on BaF3 [4] it was 5 nM. Further, the IC90 in the series on BaF3 [3] was found to be 285 nM; in the series with BaF3 [4] it was 13 nM.
Take `O=C(Nc1nccs1)C(c1ncn2c1CCC2)N1Cc2c(cc(C#Cc3ccc(CN4CCC(CO)CC4)cc3)cc2C(F)F)C1=O` (configuration not stated): the hepatocyte CLint in series [6] is 3.1 µL/min/1e6 cells; in series [7], 33 µL/min/1e6 cells. Besides, the IC50 in series [1] was 4 nM; in series [2], 13 nM; in the series with BaF3 [3], 4 nM; with BaF3 [4] it was 1 nM. Moreover, the figures for the IC90 in the series on BaF3 [3] and in the series on BaF3 [4] were 12 nM and 3 nM, respectively.
`CCN1CCN(c2ccc(-c3cc(Cl)c4cn(C(C(=O)Nc5nccs5)c5ncn6c5C[C@@H](F)C6)nc4c3Cl)cc2)CC1` (mixture of isomers): the values for the IC50 (in series [2]; in the series on BaF3 [3]; in the series with BaF3 [4]) were 15 nM, 15 nM and 8 nM, respectively. The IC90 in the series on BaF3 [3] came to 42 nM; with BaF3 [4] it was 19 nM.
In the case of `CCN1CCN(c2ccc(-c3cc(Cl)c4cn(C(C(=O)Nc5nccs5)c5ncn6c5CCC6)nc4c3Cl)cc2)CC1` (configuration not stated), the 50% inhibitory concentration (IC50) came out at 22 nM in series [2], 26 nM with BaF3 [3] and 13 nM in the series with BaF3 [4]. Also, the concentration for an effect of 90% (IC90) in the series on BaF3 [3] came to 70 nM; in the series on BaF3 [4], 33 nM.
`CCN1CCN(c2ccc(-c3cc(F)c4cn(C(C(=O)Nc5nccs5)c5ncn6c5CCC6)nc4c3)cc2)CC1` (configuration not stated): the IC50 worked out at 7 nM in series [1], 91 nM in series [2], 650 nM with BaF3 [3] and 13 nM with BaF3 [4]. Moreover, the IC90 in the series on BaF3 [3] came out at 2600 nM; with BaF3 [4] it was 30 nM.
Consider `O=C(Nc1nccs1)C(c1ncn2c1CCC2)N1Cc2ccc(C#Cc3ccccc3)cc2C1=O` (configuration not stated), for which, in the series with BaF3 [3], the IC50 is above 10000 nM and the IC90 is above 10000 nM.
On to `O=C(Nc1nccs1)C(c1ncn2c1CCC2)n1cc2c(F)cc(C#Cc3ccc(CN4CCC(O)CC4)cc3)cc2n1` (configuration not stated), for which the concentration for half-maximal inhibition (IC50) in series [1] was found to be 6 nM; in series [2] it was 106 nM; in the series on BaF3 [3], 800 nM; in the series on BaF3 [4], 9 nM.
As for `O=C(Nc1nccs1)C(c1cc(F)ccc1O)N1Cc2ccccc2C1=O` (configuration not stated), the hepatocyte CLint in series [6] is 67 µL/min/1e6 cells; in series [7] it was 27 µL/min/1e6 cells.
As to `CC1(C)CCc2c(C(C(=O)Nc3nccs3)N3Cc4c(cc(C#Cc5ccc(CN6CCC(CO)CC6)cc5)cc4C(F)F)C3=O)ncn21` (configuration not stated), the figures for the hepatocyte CLint in series [6] and in series [7] were 5 µL/min/1e6 cells and 19 µL/min/1e6 cells, respectively. Moreover, the IC50 turned out to be 4 nM in series [1], 12 nM in series [2], 1 nM with BaF3 [3] and 1 nM in the series on BaF3 [4]. Besides, the IC90 in the series on BaF3 [3] was found to be 2 nM; with BaF3 [4] it was 3 nM.
As for `O=C(Nc1nccs1)C(c1ncn2c1C[C@@H](F)C2)n1cc2c(Cl)cc(-c3ccc(N4CCOCC4)cc3)c(Cl)c2n1` (mixture of isomers), the IC50 was determined as 6 nM in series [1], 17 nM in series [2] and 12 nM in the series with BaF3 [3].
As for `O=C(Nc1nccs1)C(c1ncn2c1CCC2)N1Cc2ccc(C#Cc3ccc(CN4CCCCC4)cc3)cc2C1=O` (configuration not stated), the values for the hepatocyte CLint in series [6] and in series [7] were 6.5 µL/min/1e6 cells and 6 µL/min/1e6 cells, respectively. Moreover, the IC50 in series [1] turned out to be 16 nM; in series [2], 342 nM; in the series with BaF3 [3] it was 1300 nM; in the series on BaF3 [4] it was 17 nM. Besides, the 90% effect concentration (IC90) with BaF3 [3] was 3100 nM; in the series with BaF3 [4], 42 nM.
`O=C(Nc1nccs1)C(c1ncn2c1C[C@@H](F)C2)n1cc2c(Cl)cc(-c3ccc(N4CCN(C5CC5)CC4)cc3)c(Cl)c2n1` (mixture of isomers): the IC50 amounted to 17 nM in series [1], 30 nM in series [2], 36 nM in the series on BaF3 [3] and 23 nM in the series with BaF3 [4]. In addition, the IC90 in the series on BaF3 [3] amounted to 104 nM; with BaF3 [4] it was 55 nM.
With `O=C(Nc1nccs1)C(c1ncn2c1CCC2)N1Cc2ccccc2C1=O` (configuration not stated), the half-inhibitory concentration (IC50) in series [1] was determined as 16 nM; in series [2] it was 1700 nM.
Turning to `Cc1c(C#Cc2ccc(CN3CCC(CO)CC3)cc2)cc(C(F)F)c2cn(C(C(=O)Nc3nccs3)c3ncn4c3CCC4)nc12` (configuration not stated), the values for the IC50 (in series [1]; with BaF3 [3]; with BaF3 [4]) were 3 nM, 2 nM and 1 nM, respectively.
`O=C(Nc1nccs1)C(c1ncn2c1CCC2)N1Cc2c(cc(C#Cc3ccc(CN4CCC(CO)CC4)cc3)cc2C(F)(F)F)C1=O` (configuration not stated): the hepatocyte CLint stood at 3.3 µL/min/1e6 cells in series [6] and 50 µL/min/1e6 cells in series [7]. In addition, the half-maximal inhibitory concentration (IC50) came out at 3 nM in series [1], 26 nM in series [2], 2 nM with BaF3 [3] and 0.5 nM with BaF3 [4]. Also, the IC90 in the series on BaF3 [3] was 5 nM; in the series on BaF3 [4] it was 1 nM.
Take `O=C(Nc1nccs1)C(c1ncn2c1CCC2)n1cc2c(Cl)cc(-c3ccc(N4CCOCC4)cc3)c(Cl)c2n1` (configuration not stated): the IC50 in series [2] turned out to be 33 nM; in the series on BaF3 [3], 46 nM; with BaF3 [4], 31 nM. Besides, the concentration for an effect of 90% (IC90) in the series on BaF3 [3] worked out at 126 nM; in the series with BaF3 [4] it was 74 nM.
Take `Nc1ccc(C#Cc2cc(F)c3c(c2)C(=O)N(C(C(=O)Nc2nccs2)c2ncn4c2CCC4)C3)cn1` (configuration not stated): the IC50 was 116 nM in series [1], 1100 nM in series [2], above 10000 nM in the series on BaF3 [3] and 200 nM with BaF3 [4]. The IC90 in the series with BaF3 [3] is above 10000 nM; in the series on BaF3 [4], 490 nM.
